Tested on: Plasmodium berghei
Assay: Luciferase/luciferin-expressing antifolate-resistant parasites were used to infect a culture of HepG2 cells that were pre-incubated with compounds. Infected hepatocytes emit light due to the luciferase reaction. Assay results are presented as the percent inhibition of light emission compared to control. […]
Format: functional
Details: sporozoite; for IC90: read-out: LUCIFERASE INFECTION ASSAY - IC90
[1] = read-out: LUCIFERASE INFECTION ASSAY - IC50

Structure (SMILES) | IC50 [1] [µM] | IC90 [µM] | also measured
CCCCn1nc(C(=O)Nc2cc(S(=O)(=O)N(CC)CC)ccc2N2CCOCC2)c2ccccc2c1=O | > 10 | > 10 | –
Cc1c(-c2ccccc2)sc2[nH]c(SC(C(=O)c3ccccc3)c3ccccc3)nc(=O)c12 (configuration not stated) | – | > 10 | IC50 (HEPG2TOX_HILL_SLOPE 4.76, HEPG2TOX_R_SQUARED 0.813, PBLUC_HILL_SLOPE 2.74, PBLUC_R_SQUARED 0.111, read-out: LUCIFERASE INFECTION ASSAY - IC50): 6.76 µM
COc1ccc(CC2CCC(=NOC(=O)c3ccc(C(C)(C)C)cc3)CC2)cc1 (configuration not stated) | – | > 8.39 | IC50 (FFLUC_HILL_SLOPE 16.8, FFLUC_R_SQUARED 0.295, read-out: LUCIFERASE INFECTION ASSAY - IC50): > 8.39 µM
Cc1c(Cl)c(=O)[nH]c2ccccc12 | – | > 17 | IC50 (HEPG2TOX_HILL_SLOPE 0.732, HEPG2TOX_R_SQUARED 0.944, PBLUC_HILL_SLOPE 0.944, PBLUC_R_SQUARED 0.141, read-out: LUCIFERASE INFECTION ASSAY - IC50): > 17 µM
COC(=O)c1c(NC(=O)c2cccnc2)c2cc(NCC(C)C)cnc2n1CC(C)C | > 7.79 | > 7.79 | –
CCN(c1ccccc1)S(=O)(=O)c1cc(-c2oc3ccc(F)cc3c(=O)c2C)ccc1C | – | > 10 | IC50 (PBLUC_HILL_SLOPE 4.38, PBLUC_R_SQUARED 0.421, read-out: LUCIFERASE INFECTION ASSAY - IC50): 6.53 µM
CC(=O)c1c(C)[nH]c(C(=O)OCC(=O)Nc2c(C)nn(-c3ccccc3)c2C)c1C | – | > 10 | IC50 (PBLUC_HILL_SLOPE 2.08, PBLUC_R_SQUARED 0.0451, read-out: LUCIFERASE INFECTION ASSAY - IC50): > 10 µM
Cn1nnnc1Sc1ncnc2cc(-c3ccc(F)cc3)sc12 | > 10 | > 10 | –
COc1ccccc1NC(=S)N/N=C(C)/C=C/C1C(C)=CCCC1(C)C (configuration not stated) | > 10 | > 10 | –
O=C(COc1ccccc1CSc1ccc(Cl)cc1)N/N=C/c1ccccc1Cl | > 7.41 | > 7.41 | –
Cc1[nH]c2ccc(C(=O)OC(C)C(=O)NCc3ccccc3)cc2c1C (configuration not stated) | 3.57 | 8.96 | –
COc1ccc(C(CNC(=O)c2cc(Br)ccc2F)N(C)C)cc1 (configuration not stated) | > 10 | > 10 | –
c1ccc(-c2nc(NCCCN3CCOCC3)c3cc(-c4ccccc4)sc3n2)cc1 | – | > 10 | IC50 (PBLUC_HILL_SLOPE 16.1, PBLUC_R_SQUARED 0.337, read-out: LUCIFERASE INFECTION ASSAY - IC50): 9.75 µM
CCOC(=O)c1sc(SCc2ccccc2)c2c1CC(c1ccccc1)CC2=O (configuration not stated) | – | > 7.81 | IC50 (FFLUC_HILL_SLOPE 10.5, FFLUC_R_SQUARED 0.686, PBLUC_HILL_SLOPE 0.804, PBLUC_R_SQUARED 0.242, read-out: LUCIFERASE INFECTION ASSAY - IC50): > 7.81 µM
Cc1cc(C)c(NC(=NC2CCCCC2)Nc2c(C)cc(C)cc2C)c(C)c1 | – | 9.33 | IC50 (PBLUC_HILL_SLOPE 26.1, PBLUC_R_SQUARED 0.486, read-out: LUCIFERASE INFECTION ASSAY - IC50): 8.58 µM
CCCNC(=O)c1c(NC(=O)c2ccc(OCC)cc2)nc2ccccn12 | – | 8.98 | IC50 (PBLUC_HILL_SLOPE 45.3, PBLUC_R_SQUARED 0.241, read-out: LUCIFERASE INFECTION ASSAY - IC50): 8.55 µM
Cc1nn(-c2ccccc2)c(Cl)c1CSc1nnc(/C=C/c2ccc(F)cc2)[nH]1 | > 10 | > 10 | –
O=C1NC(c2ccccc2)=C(C(=O)C(F)(F)F)C(c2ccc(OC(F)F)cc2)N1 (configuration not stated) | > 10 | > 10 | –
CCOC(=O)c1sc2nc(C)nc(N3CC=C(c4c[nH]c5ncccc45)CC3)c2c1C | > 10 | > 10 | –
CN(C)c1ccc(C(=O)N2CCc3nc(NCc4cccc(Oc5ccccc5)c4)ncc3C2)cc1 | – | > 6.88 | IC50 (HEPG2TOX_HILL_SLOPE 9.14, HEPG2TOX_R_SQUARED 0.261, read-out: LUCIFERASE INFECTION ASSAY - IC50): > 6.88 µM
CN1c2ccccc2C(C)(C)C12C=Cc1c(c(Br)cc3oc4c(c13)CCCC4)O2 (configuration not stated) | – | > 10 | IC50 (HEPG2TOX_HILL_SLOPE 0.555, HEPG2TOX_R_SQUARED 0.409, PBLUC_HILL_SLOPE 0.699, PBLUC_R_SQUARED 0.384, read-out: LUCIFERASE INFECTION ASSAY - IC50): 4.21 µM
CCn1c(NC(=O)Cc2c(Cl)cccc2Cl)nc2ccccc21 | – | 6.27 | IC50 (PBLUC_HILL_SLOPE 118, PBLUC_R_SQUARED 0.0721, read-out: LUCIFERASE INFECTION ASSAY - IC50): 6.16 µM
Cc1cc(-c2nc(C)sc2CC(=O)O)c(C)s1 | > 10 | > 10 | –
FC(F)(F)Oc1cccc(-c2cnc3ccc(-c4cncnc4)nn23)c1 | – | 3.91 | IC50 (PBLUC_HILL_SLOPE 4.12, PBLUC_R_SQUARED 0.479, read-out: LUCIFERASE INFECTION ASSAY - IC50): 2.29 µM
O=C(Nc1cccc(Cl)c1)C1=COC2=NC(=O)N(Cc3ccccc3)CCN12 | – | > 10 | IC50 (HEPG2TOX_HILL_SLOPE 1.91, HEPG2TOX_R_SQUARED 0.961, read-out: LUCIFERASE INFECTION ASSAY - IC50): > 10 µM
Cc1ccc(C2=NNC(=NC3CC3)SC2)cc1 | 1.46 | > 10 | –

Structure (SMILES) | IC50 [1] [µM] | IC90 [µM] | also measured
Cc1ccc(-c2nc(SCCC(N)=O)[nH]c2-c2ccc(C)cc2)cc1 | > 10 | > 10 | –
Cc1csc(=O)n1CC(=O)Nc1ccccc1C(=O)NCc1ccco1 | > 10 | > 10 | –
CCOC(=O)c1cc(C#N)c(Sc2n[nH]c(=O)n2Cc2ccccc2)nc1C(F)(F)F | > 7.34 | > 7.34 | –
CSc1c(-c2ccc(Cl)cc2)[nH]c2ccccc12 | – | > 12.1 | IC50 (PBLUC_HILL_SLOPE 3.51, PBLUC_R_SQUARED 0.189, read-out: LUCIFERASE INFECTION ASSAY - IC50): 11.1 µM
CCOC(=O)c1c(NC(=O)CSc2nnc3n(-c4c(C)cccc4C)c(=O)c4ccccc4n23)sc(C(C)=O)c1C | – | 5.29 | IC50 (FFLUC_HILL_SLOPE 2.66, FFLUC_R_SQUARED 0.447, PBLUC_HILL_SLOPE 3.22, PBLUC_R_SQUARED 0.684, read-out: LUCIFERASE INFECTION ASSAY - IC50): 2.67 µM
COc1cc2c(cc1OC)C(c1cccc(C(F)(F)F)c1)CC(=O)N2 (configuration not stated) | > 9.39 | > 9.39 | –
C/C(=N\N=C(N)N)c1ccc(Cl)c(Cl)c1 | – | > 10 | IC50 (PBLUC_HILL_SLOPE 2.49, PBLUC_R_SQUARED 0.254, read-out: LUCIFERASE INFECTION ASSAY - IC50): 4.31 µM
Cn1cc(C(=O)ONC(=N)c2ccc(C(C)(C)C)cc2)c(C(F)(F)F)n1 | > 8.96 | > 8.96 | –
Cc1nc2ccccc2c(C)c1CC(=O)NCc1coc(-c2cccs2)n1 | > 10 | > 10 | –
CC(C)(C)c1ccc(NC(=O)Cc2csc(NC(=O)C3CC3)n2)cc1 | > 10 | > 10 | –
CC(Nc1ccc2c(c1)Cc1ccccc1-2)C(=O)N1CCCC1 (configuration not stated) | – | > 10 | IC50 (PBLUC_HILL_SLOPE 13.8, PBLUC_R_SQUARED 0.568, read-out: LUCIFERASE INFECTION ASSAY - IC50): 8.56 µM
CC(OC(=O)c1cc2sc3ccccc3c2s1)C(=O)N1CCNC1=O (configuration not stated) | – | 9.91 | IC50 (PBLUC_HILL_SLOPE 15.1, PBLUC_R_SQUARED 0.0385, read-out: LUCIFERASE INFECTION ASSAY - IC50): 8.57 µM
COc1ccccc1/C=C(/C(=O)OCc1cc(=O)n2cc(C)ccc2n1)c1ccccc1 | – | > 10 | IC50 (PBLUC_HILL_SLOPE 4.19, PBLUC_R_SQUARED 0.0967, read-out: LUCIFERASE INFECTION ASSAY - IC50): 6.55 µM
N#Cc1ccsc1NC(=O)CCN1CCN(Cc2c(F)cccc2Cl)CC1 | > 10 | > 10 | –
COc1cccc(-c2nc3ccc(NC(=O)Nc4ccc(OC(F)(F)F)cc4)cn3n2)c1 | – | > 10 | IC50 (FFLUC_HILL_SLOPE 45.6, FFLUC_R_SQUARED 0.742, read-out: LUCIFERASE INFECTION ASSAY - IC50): > 10 µM
CC1Cc2ccccc2N1C(=O)CSC1=NNC(=C2N=Nc3ccccc32)N1c1ccccc1 (configuration not stated) | – | 8.33 | IC50 (FFLUC_HILL_SLOPE 19.6, FFLUC_R_SQUARED 0.491, PBLUC_HILL_SLOPE 5.23, PBLUC_R_SQUARED 0.568, read-out: LUCIFERASE INFECTION ASSAY - IC50): 5.48 µM
CC(C)(C(=O)NCc1ccccc1Br)n1cc(-c2ccc(OCCN3CCCC3)cc2)cn1 | > 10 | > 10 | –
Cc1nn(Cc2nnc(-c3ccco3)o2)c(C)c1S(=O)(=O)N1CCCCC1 | > 10 | > 10 | –
S=C(Nc1ccc(Oc2ccccc2)cc1)Nc1cccc2cnccc12 | – | > 10 | IC50 (PBLUC_HILL_SLOPE 1.05, PBLUC_R_SQUARED 0.612, read-out: LUCIFERASE INFECTION ASSAY - IC50): 4.86 µM
CN1CCN(C(=O)c2cccc(-c3cnc4cnc(-c5ccc(Cl)cc5)cn34)c2)CC1 | > 7.64 | > 7.64 | –
O=S(=O)(C1=Cc2ccccc2CC1)N1CCOC2CCCCC21 (configuration not stated) | > 10 | > 10 | –
Cc1cccc(C(=O)Nc2nnc(SCc3ccc(C#N)cc3)s2)n1 | – | 6.71 | IC50 (FFLUC_HILL_SLOPE 1.7, FFLUC_R_SQUARED 0.312, PBLUC_HILL_SLOPE 60.1, PBLUC_R_SQUARED 0.803, read-out: LUCIFERASE INFECTION ASSAY - IC50): 6.47 µM
c1cncc(-c2nc(Oc3ccc(-c4nnc5n4CCCCC5)cc3)c3ccccc3n2)c1 | – | > 10 | IC50 (PBLUC_HILL_SLOPE 11.7, PBLUC_R_SQUARED 0.282, read-out: LUCIFERASE INFECTION ASSAY - IC50): > 10 µM
COCCc1ccc(-c2csc(NC(=O)Cc3c[nH]c4ccccc34)n2)cc1 | – | > 10 | IC50 (HEPG2TOX_HILL_SLOPE 5.8, HEPG2TOX_R_SQUARED 0.844, read-out: LUCIFERASE INFECTION ASSAY - IC50): > 10 µM
Cc1nc2nc(-c3ccccc3)nn2c(N2CCCC2)c1Cc1ccccc1 | 3.28 | > 8.93 | –

— ChEMBL document CHEMBL4483862, “Open-source discovery of chemical leads for next-generation chemoprotective antimalarials” (2018)
